Counter-ions that a name gives are not always drawn.
What was measured:
[1] = biological target: GSK3alpha (Homo sapiens, UniProt P49840); experiment: GSK3alpha assay (same as the GSK3beta assay, 0.25 ng/μl GSK3alpha); format: biochemical; settings: ranges of pIC50 (−log IC50 (M)), 1 μM ATP, read-out: GSK3a pIC50 (converted)
Protocol: (§1) GSK3beta assays were performed at room temperature in a 100 μl reaction volume of 25 mM Tris (pH 7.4) containing 10 mM MgCl2.6H2O, 1 mM DTI, 0.1 mgiml BSA, 5% glycerol and containing 5.7 ng/μl GSK3β, 5 μM biotinylated phosphorylated CREB peptide, 1 μM ATP, 0.85 μCi/ml ATP-P^33 and a suitable amount of a test compound of formula (I). After one hour, the reaction was terminated by adding 70 μl of Stop mix (0.1 mM ATP, 5 mg/ml streptavidin coated PVT SPA bead pH 11.0). The beads to which the phosphorylated CREB peptide is attached were allowed to settle overnight and the radioactivity of the beads was counted in a microtiterplate scintillation counter and compared with the results obtained in a control experiment (without the presence of a test compound) in order to determine the percentage of GSK3β inhibition. The IC50 value, i.e. the concentration (M) of the test compound at which 50% of GSK3β is inhibited, was calculated from the dose response curve obtained by performing the above-described GSK3β assay in the presence of different amounts of the test compound.
The GSK3alpha assay was performed in the same way as described above for the GSK3beta assay except for the concentration of GSK3alpha which is 0.25 ng/μl.

[2] = biological target: GSK3β (Homo sapiens, UniProt P49841); experiment: GSK3beta assay (SPA, biotinylated phosphorylated CREB peptide, ATP-P33); format: biochemical; settings: ranges of pIC50 (−log IC50 (M)); 1 μM ATP, room temperature, one hour; read-out: GSK3b pIC50 (converted)
Sequence of GSK3β (P49841 whole entry, species assumed): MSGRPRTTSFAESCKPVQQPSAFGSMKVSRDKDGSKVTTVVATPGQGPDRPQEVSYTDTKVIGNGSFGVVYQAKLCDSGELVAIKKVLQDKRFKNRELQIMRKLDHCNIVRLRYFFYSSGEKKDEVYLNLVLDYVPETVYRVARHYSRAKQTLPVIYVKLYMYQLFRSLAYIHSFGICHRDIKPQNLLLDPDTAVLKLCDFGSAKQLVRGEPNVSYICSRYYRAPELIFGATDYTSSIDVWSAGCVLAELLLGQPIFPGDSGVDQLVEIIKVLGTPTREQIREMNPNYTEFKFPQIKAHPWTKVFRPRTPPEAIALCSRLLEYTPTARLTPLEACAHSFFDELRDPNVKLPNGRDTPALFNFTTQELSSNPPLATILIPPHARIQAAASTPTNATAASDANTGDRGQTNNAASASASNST
Protocol: as §1

Sequence of GSK3alpha (P49840 whole entry, species assumed): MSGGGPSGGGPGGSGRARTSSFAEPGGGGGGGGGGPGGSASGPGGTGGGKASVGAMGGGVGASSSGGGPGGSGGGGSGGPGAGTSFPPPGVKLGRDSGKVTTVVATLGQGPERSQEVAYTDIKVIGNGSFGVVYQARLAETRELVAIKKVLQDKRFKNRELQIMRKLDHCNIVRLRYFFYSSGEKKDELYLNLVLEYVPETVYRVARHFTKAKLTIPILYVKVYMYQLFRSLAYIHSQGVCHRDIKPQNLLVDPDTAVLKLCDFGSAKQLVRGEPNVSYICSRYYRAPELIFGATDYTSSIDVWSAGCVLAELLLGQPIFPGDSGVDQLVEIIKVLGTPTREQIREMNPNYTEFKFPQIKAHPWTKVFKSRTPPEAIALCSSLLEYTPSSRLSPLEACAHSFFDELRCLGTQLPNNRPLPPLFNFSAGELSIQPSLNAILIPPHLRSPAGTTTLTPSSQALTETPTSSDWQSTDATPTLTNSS

SMILES	melting point	IC50 [1]	IC50 [2]
Brc1cccc(-n2nnc3cnc(Nc4cccc(C5=NCNC5)c4)nc32)c1 (as salt: HCl) [Compound 43]	> 260 °C	–	–
CN1CCN(c2ccc(Nc3ncc4nnn(C5CCCCC5)c4n3)cc2)CC1 [Compound 4]	167 °C	–	–
O=c1[nH]nc(-c2cccc(Nc3ncc4nnn(-c5cccc(F)c5)c4n3)c2)[nH]1 [Compound 1]	> 260 °C	< 1e-08 M	< 1e-08 M
CN1CCN(c2cccc(Nc3ncc4nnn(-c5cccc(F)c5)c4n3)c2)CC1 (as salt: HCl) [Compound 36]	> 250 °C	–	–
Fc1cccc(-n2nnc3cnc(Nc4cccc(-c5cnccn5)c4)nc32)c1 [Compound 2]	> 260 °C	< 1e-08 M	< 1e-08 M
Cn1nccc1-c1cccc(Nc2ncc3nnn(-c4ccccc4)c3n2)c1 [Compound 9]	216 °C	< 1e-08 M	< 1e-08 M
COc1cccc(-n2nnc3cnc(Nc4cccc(-c5cnco5)c4)nc32)c1 [Compound 16]	–	< 1e-08 M	< 1e-08 M
Cn1nnnc1-c1cccc(Nc2ncc3nnn(-c4cccc(CCO)c4)c3n2)c1 [Compound 76]	–	< 1e-08 M	< 1e-08 M
OCCc1cccc(-n2nnc3cnc(Nc4ccc(CN5CCC(O)CC5)cc4)nc32)c1 [Compound 79]	–	< 1e-08 M	< 1e-08 M
Cn1cnnc1-c1cccc(Nc2ncc3nnn(-c4cccc(F)c4)c3n2)c1 [Compound 26]	–	< 1e-08 M	< 1e-08 M
O=C(NCCN1CCOCC1)c1ccc(Nc2ncc3nnn(-c4cccc(CCO)c4)c3n2)cc1 [Compound 81]	–	< 1e-08 M	< 1e-08 M
Fc1cccc(-n2nnc3cnc(Nc4ccc(-n5cncn5)cc4)nc32)c1 [Compound 40]	–	< 1e-08 M	< 1e-08 M
Brc1cccc(-n2nnc3cnc(Nc4cccc(-c5cncnc5)c4)nc32)c1 [Compound 47]	–	< 1e-08 M	< 1e-08 M
OCCc1ccc(-n2nnc3cnc(Nc4ccc(N5CCOCC5)cc4)nc32)cc1 [Compound 85]	–	< 1e-08 M	> 1e-07 M
Fc1cccc(-n2nnc3cnc(Nc4cccc(-c5cccnc5)c4)nc32)c1 [Compound 30]	208 to 212 °C	< 1e-08 M	< 1e-08 M
Brc1cccc(-n2nnc3cnc(Nc4ccc(-c5nnn[nH]5)cc4)nc32)c1 [Compound 52]	–	< 1e-08 M	< 1e-08 M
CNc1nccc(-c2cccc(Nc3ncc4nnn(-c5cccc(F)c5)c4n3)c2)n1 [Compound 34]	–	< 1e-08 M	< 1e-08 M
O=[N+]([O-])c1cc(Nc2ncc3nnn(C4CCCCC4)c3n2)ccc1N1CCOCC1 [Compound 5]	161.9 °C	–	1e-08 to 1e-07 M
Brc1cccc(-n2nnc3cnc(Nc4ccc(Nc5ncccn5)cc4)nc32)c1 [Compound 54]	–	< 1e-08 M	1e-08 to 1e-07 M
Fc1cccc(-n2nnc3cnc(Nc4cccc(-c5cnco5)c4)nc32)c1 [Compound 20]	–	< 1e-08 M	< 1e-08 M

Other lines, results leading:

melting point	IC50 [1]	IC50 [2]	SMILES
210 to 212 °C	< 1e-08 M	< 1e-08 M	CN1CCN(c2ccc(Nc3ncc4nnn(-c5cccc(CC#N)c5)c4n3)cc2)CC1 [Compound 88]
210 to 214 °C	< 1e-08 M	< 1e-08 M	OCc1cccc(-n2nnc3cnc(Nc4cccc(-c5cnco5)c4)nc32)c1 [Compound 96]
–	1e-08 to 1e-07 M	1e-08 to 1e-07 M	COCCOCc1cccc(-n2nnc3cnc(Nc4ccc(CN5CCN(C)CC5)cc4)nc32)c1 [Compound 109]
–	< 1e-08 M	< 1e-08 M	CN1CCN(CCCOc2ccc(Nc3ncc4nnn(-c5cccc(CC#N)c5)c4n3)cc2)CC1 [Compound 94]
–	< 1e-08 M	< 1e-08 M	NC(=O)Cc1cccc(-n2nnc3cnc(Nc4cccc(-c5cnco5)c4)nc32)c1 [Compound 95]
–	< 1e-08 M	< 1e-08 M	COCc1cccc(-n2nnc3cnc(Nc4cccc(-c5ccnc(N)n5)c4)nc32)c1 [Compound 100]
156 to 160 °C	< 1e-08 M	< 1e-08 M	CC(=O)NCc1cccc(-n2nnc3cnc(Nc4cccc(-c5cnco5)c4)nc32)c1 [Compound 115]
> 260 °C	< 1e-08 M	< 1e-08 M	N#CCc1cccc(-n2nnc3cnc(Nc4cccc(-c5ccnc(N)n5)c4)nc32)c1 [Compound 87]
–	< 1e-08 M	< 1e-08 M	N#CCc1cccc(-n2nnc3cnc(Nc4ccc(C(=O)NCCN5CCOCC5)cc4)nc32)c1 [Compound 92]
–	< 1e-08 M	1e-08 to 1e-07 M	COCCOc1cccc(-n2nnc3cnc(Nc4ccc(C(=O)NCCN5CCOCC5)cc4)nc32)c1 [Compound 134]
210 to 214 °C	< 1e-08 M	< 1e-08 M	COCC(=O)NCc1cccc(-n2nnc3cnc(Nc4cccc(-c5cnco5)c4)nc32)c1 [Compound 122]
–	< 1e-08 M	< 1e-08 M	CC(=O)NCc1cccc(-n2nnc3cnc(Nc4cccc(-c5nnnn5C)c4)nc32)c1 [Compound 116]
–	< 1e-08 M	1e-08 to 1e-07 M	CN1CCN(CCOc2ccc(Nc3ncc4nnn(-c5cccc(F)c5)c4n3)cc2)CC1 [Compound 140]
–	1e-08 to 1e-07 M	1e-08 to 1e-07 M	COCCOc1cccc(-n2nnc3cnc(Nc4ccc(N5CCN(C)CC5)cc4)nc32)c1 [Compound 130]
–	< 1e-08 M	1e-08 to 1e-07 M	CN1CCN(CCCOc2ccc(Nc3ncc4nnn(-c5cccc(F)c5)c4n3)cc2)CC1 [Compound 143]
–	1e-08 to 1e-07 M	1e-08 to 1e-07 M	CN1CCN(CCOc2ccc(Nc3ncc4nnn(-c5cccc(CC#N)c5)c4n3)cc2)CC1 [Compound 93]
–	< 1e-08 M	1e-08 to 1e-07 M	COc1cccc(-n2nnc3cnc(Nc4cccc(-c5nnn[nH]5)c4)nc32)c1 [Compound 127]
–	< 1e-08 M	1e-08 M	Cn1nnnc1-c1cccc(Nc2ncc3nnn(-c4cccc(S(N)(=O)=O)c4)c3n2)c1 [Compound 146]
–	< 1e-08 M	< 1e-08 M	COCCOCc1cccc(-n2nnc3cnc(Nc4ccc(C(=O)NCCN5CCOCC5)cc4)nc32)c1 [Compound 112]
> 250 °C	–	–	NCc1cccc(-n2nnc3cnc(Nc4cccc(-c5cnco5)c4)nc32)c1 (as salt: HCl) [Compound 114]
–	< 1e-08 M	< 1e-08 M	Fc1cccc(-n2nnc3cnc(Nc4ccc(-c5nn[nH]n5)cc4)nc32)c1 [Compound 138]
–	< 1e-08 M	1e-08 to 1e-07 M	Fc1cccc(-n2nnc3cnc(Nc4ccc(OCCN5CCOCC5)cc4)nc32)c1 [Compound 141]

From patent publication US7449465B2, “Triazolopyrimidine derivatives as glycogen synthase kinase 3 inhibitors” (Janssen Pharmaceutica, N.V., priority 2003, dated 2008)
